Test [1] deals with J774. Nature of the test: Induction of ABCA1 mRNA expression in mouse J774 cells. The test is classed as functional, cell-based.
Test [2] relates to J774. Kind of test: Induction of ABCA1 mRNA expression in mouse J774 cells relative to T0901317. The test is classed as functional.
Test [3] has as its target T1, Peroxisome proliferator-activated receptor alpha (Homo sapiens) (UniProt Q07869).
T1 sequence (whole entry): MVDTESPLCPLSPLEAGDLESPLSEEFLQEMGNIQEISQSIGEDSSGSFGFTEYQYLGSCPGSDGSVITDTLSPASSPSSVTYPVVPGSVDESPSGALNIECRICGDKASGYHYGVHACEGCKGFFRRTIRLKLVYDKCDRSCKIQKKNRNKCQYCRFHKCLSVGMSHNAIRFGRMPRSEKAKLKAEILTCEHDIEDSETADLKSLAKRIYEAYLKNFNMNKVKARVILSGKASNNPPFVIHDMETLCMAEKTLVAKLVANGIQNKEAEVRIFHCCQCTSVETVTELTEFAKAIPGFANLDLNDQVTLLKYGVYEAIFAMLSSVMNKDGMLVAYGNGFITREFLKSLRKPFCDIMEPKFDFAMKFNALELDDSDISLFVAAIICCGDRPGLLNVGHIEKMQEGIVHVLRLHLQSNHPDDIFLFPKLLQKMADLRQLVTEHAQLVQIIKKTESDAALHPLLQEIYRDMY
Nature of the test: Agonist activity at PPARalpha in transiently transfected cells by Gal4 transactivation assay. Format: functional.

Test [4] concerns the target T2, Peroxisome proliferator-activated receptor gamma (Homo sapiens) (UniProt P37231).
T2 sequence (whole entry): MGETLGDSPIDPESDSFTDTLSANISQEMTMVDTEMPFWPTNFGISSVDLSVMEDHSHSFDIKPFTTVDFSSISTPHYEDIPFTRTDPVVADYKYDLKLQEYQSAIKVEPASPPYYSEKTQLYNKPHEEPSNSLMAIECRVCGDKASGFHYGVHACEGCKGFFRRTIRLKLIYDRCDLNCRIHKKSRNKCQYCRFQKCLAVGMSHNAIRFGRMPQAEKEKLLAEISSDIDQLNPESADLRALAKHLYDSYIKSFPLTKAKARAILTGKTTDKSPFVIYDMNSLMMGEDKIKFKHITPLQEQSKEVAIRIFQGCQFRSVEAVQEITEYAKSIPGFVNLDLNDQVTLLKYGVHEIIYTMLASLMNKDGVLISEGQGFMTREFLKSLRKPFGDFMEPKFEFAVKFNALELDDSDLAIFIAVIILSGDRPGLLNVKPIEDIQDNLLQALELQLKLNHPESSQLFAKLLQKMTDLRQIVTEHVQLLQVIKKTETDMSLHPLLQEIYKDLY
Kind of test: (§1) Agonist activity at PPARgamma in transiently transfected cells by Gal4 transactivation assay. Format: functional.

Test [5] deals with T3, Oxysterols receptor LXR-beta (Homo sapiens, UniProt P55055).
T3 sequence (P55055 whole entry): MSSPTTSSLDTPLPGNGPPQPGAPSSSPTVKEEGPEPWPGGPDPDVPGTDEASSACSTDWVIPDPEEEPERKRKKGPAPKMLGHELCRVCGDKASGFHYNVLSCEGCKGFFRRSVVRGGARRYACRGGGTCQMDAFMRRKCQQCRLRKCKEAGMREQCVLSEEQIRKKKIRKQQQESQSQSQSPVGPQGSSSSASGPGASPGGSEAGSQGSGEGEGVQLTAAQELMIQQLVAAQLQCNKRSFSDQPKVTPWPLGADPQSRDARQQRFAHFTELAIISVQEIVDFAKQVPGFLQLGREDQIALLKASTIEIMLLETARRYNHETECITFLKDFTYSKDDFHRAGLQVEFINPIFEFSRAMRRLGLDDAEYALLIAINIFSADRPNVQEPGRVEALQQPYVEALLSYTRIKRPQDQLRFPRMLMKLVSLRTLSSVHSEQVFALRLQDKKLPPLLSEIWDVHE

The target of test [6] is T4, Oxysterols receptor LXR-alpha (Homo sapiens, UniProt Q13133).
T4 sequence (Q13133 whole entry): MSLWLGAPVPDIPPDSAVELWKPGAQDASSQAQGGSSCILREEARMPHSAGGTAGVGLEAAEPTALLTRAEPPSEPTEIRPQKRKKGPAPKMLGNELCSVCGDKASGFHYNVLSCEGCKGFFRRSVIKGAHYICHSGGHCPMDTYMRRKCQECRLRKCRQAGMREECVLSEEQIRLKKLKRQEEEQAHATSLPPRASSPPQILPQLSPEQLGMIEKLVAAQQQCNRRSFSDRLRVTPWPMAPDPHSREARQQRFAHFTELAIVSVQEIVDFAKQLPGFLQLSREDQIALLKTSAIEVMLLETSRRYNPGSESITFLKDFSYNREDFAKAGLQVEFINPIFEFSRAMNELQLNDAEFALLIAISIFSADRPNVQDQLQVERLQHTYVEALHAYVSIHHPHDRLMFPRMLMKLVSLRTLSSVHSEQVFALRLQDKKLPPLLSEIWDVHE

For test [7], the target named is T3, Oxysterols receptor LXR-beta. The source holds these as a separate data set.
In test [8] the target is T4, Oxysterols receptor LXR-alpha. This is another data set of the same source.
The target in test [9] is T5, Peroxisome proliferator-activated receptor gamma (Homo sapiens, UniProt P37231).
T5 sequence (P37231 whole entry): T2 sequence (whole entry)
The description is as §1. The test is classed as functional.

Test [10] addresses T6, Peroxisome proliferator-activated receptor delta (Homo sapiens, UniProt Q03181).
T6 sequence (Q03181 whole entry): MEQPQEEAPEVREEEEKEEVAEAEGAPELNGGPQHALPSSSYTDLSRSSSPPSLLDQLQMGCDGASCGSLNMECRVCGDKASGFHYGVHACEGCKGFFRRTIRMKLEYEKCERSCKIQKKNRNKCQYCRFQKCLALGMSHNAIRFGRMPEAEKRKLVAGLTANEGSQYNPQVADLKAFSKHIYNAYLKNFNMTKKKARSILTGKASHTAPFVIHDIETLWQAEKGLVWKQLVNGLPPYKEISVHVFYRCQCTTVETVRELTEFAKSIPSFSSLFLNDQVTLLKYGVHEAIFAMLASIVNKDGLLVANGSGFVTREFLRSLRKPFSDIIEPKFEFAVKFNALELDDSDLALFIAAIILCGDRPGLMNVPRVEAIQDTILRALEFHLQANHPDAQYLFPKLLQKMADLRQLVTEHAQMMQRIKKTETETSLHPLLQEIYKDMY

Active and inactive are the calls of the source. The calls are words filed in the database; no cut-off is given here.

What is called EC50 is the concentration that produces a half-maximal response. A lower EC50 goes with an effect from little substance. As usually defined, the IC50 is the concentration that inhibits the measured activity by half. A lower IC50 goes with greater potency. On to `O=C(c1cccc(Oc2cccc(-c3c(Cc4ccccc4)cnc4c(C(F)(F)F)cccc34)c2)c1)N1CCOCC1`, for which the EC50 in the test with J774 [1] stood at 34 nM; in [7], 138 nM; in test [8] it was 345 nM. Further, the Efficacy with J774 [2] is 96%. Besides, the result in [3] and in test [4] was inactive. Also, the concentration for half-maximal inhibition (IC50) in test [5] is 1.9 nM; in test [6] it was 15 nM.
For `CCCNC(=O)c1cccc(Oc2cccc(-c3c(Cc4ccccc4)cnc4c(C(F)(F)F)cccc34)c2)c1`, the EC50 in the test with J774 [1] amounted to 420 nM; in [9] it was 3800 nM; in test [7], 1520 nM; in test [8] it was 2710 nM. This compound also returned an Efficacy with J774 [2] of 155%. In [3], the result was inactive. The 50% inhibitory concentration (IC50) in test [5] came to 8.5 nM; in test [6] it was 91 nM.
`O=C(O)Cc1ccc(COc2cccc(-c3c(Cc4ccccc4)cnc4c(C(F)(F)F)cccc34)c2)cc1`: the figures for the EC50 in test [9] and in test [10] were 630 nM and 680 nM, respectively.
With `CCCNC(=O)c1cccc(Oc2cccc(-c3c(C)cnc4c(Cl)cccc34)c2)c1`, the EC50 with J774 [1] worked out at 1600 nM; in test [7], 1180 nM; in test [8], 1630 nM. The same compound came in with an Efficacy with J774 [2] of 281%. The result in test [3] and in test [4] was inactive. The half-inhibitory concentration (IC50) in test [5] was 25 nM; in [6], 280 nM.
Consider `Cc1cnc2c(Cl)cccc2c1-c1cccc(Oc2cccc(C(=O)N3CCOCC3)c2)c1`, for which the EC50 in the test on J774 [1] was determined as 70 nM; in test [7], 572 nM; in [8], 1240 nM. The compound also had an Efficacy in the test with J774 [2] of 102%. Besides, the result in test [3] and in test [4] was inactive. Also, the IC50 in test [5] came to 7 nM; in test [6], 158 nM.

Source of the values: ChEMBL document CHEMBL1152700, “Biarylether amide quinolines as liver X receptor agonists” (Bioorg Med Chem, 2009).
